Some test systems named below: COLO 205 colon; HL-60(TB) leukemia; HS 578T breast; NCI-H23 lung; SF-539 CNS; SK-OV-3 ovarian; UACC-62 melanoma; A498 renal.
What all share (assay): inhibition of tumour cell growth, NCI panel, 48 h

SMILES strings stand for the structures. Where “and” joins values, the source holds several entries; their conditions need not be identical. Equal values may be shown once.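 Cells were grown in 96-well plates and exposed to each compound for 48 hours at five concentrations; endpoints were interpolated linearly between bracketing concentrations, or set to the highest concentration if not reached. Here, GI50 denotes the concentration required for 50% inhibition of growth. The concentration for full growth arrest is given as TGI.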

Regarding `CS(=O)(=O)O[C@H]1C(=O)N(c2cc3c4ccccc4ccc3c3ccccc23)[C@@H]1c1ccccn1`, the GI50 with COLO 205 colon was 0.398 µM; in the assay with HL-60(TB) leukemia it was 0.309 µM; in the assay with HS 578T breast it was 0.428 µM; in the assay with NCI-H23 lung, 0.981 µM; in the assay on SF-539 CNS it was 0.316 µM; in the assay with SK-OV-3 ovarian, 0.627 µM. In the assay on UACC-62 melanoma, the GI50 is 0.347 µM. The TGI was 1.95 µM in the assay with COLO 205 colon; above 100 µM in the assay on HL-60(TB) leukemia; above 100 µM in the assay on HS 578T breast; above 100 µM with NCI-H23 lung; 2.96 µM in the assay with SF-539 CNS; above 100 µM with SK-OV-3 ovarian. The compound further showed a TGI with UACC-62 melanoma above 100 µM.

Consider `CN1C(=O)/C(=C2\S/C(=N\c3nnc(-c4ccccc4)o3)NC2=O)c2ccccc21`, for which the GI50 was above 100 µM with COLO 205 colon; above 100 µM in the assay with HS 578T breast; above 100 µM in the assay on NCI-H23 lung; above 100 µM in the assay with SF-539 CNS; above 100 µM in the assay on SK-OV-3 ovarian; 79.2 µM in the assay with UACC-62 melanoma. The TGI in the assay with COLO 205 colon, with HS 578T breast, in the assay on NCI-H23 lung, in the assay with SF-539 CNS, in the assay on SK-OV-3 ovarian and in the assay on UACC-62 melanoma was above 100 µM each time.

Regarding `COc1ccc(/C(=C/c2ccc3ccccc3c2)c2nn[nH]n2)cc1OC`, the GI50 in the assay on COLO 205 colon was 2.27 µM; in the assay on HL-60(TB) leukemia it was 2.56 µM; in the assay with HS 578T breast it was 2.23 µM; with NCI-H23 lung, 5.29 µM; with SF-539 CNS, 2.38 µM; in the assay with SK-OV-3 ovarian, 3.63 µM. Further, the GI50 in the assay with UACC-62 melanoma is 0.867 µM. Further, the TGI in the assay with COLO 205 colon was 6.56 µM; in the assay on HL-60(TB) leukemia, 6.94 µM; in the assay with HS 578T breast, 53.6 µM; with NCI-H23 lung, above 100 µM; in the assay with SF-539 CNS, 7.94 µM; in the assay with SK-OV-3 ovarian it was above 100 µM. In the assay with UACC-62 melanoma, this compound had a TGI above 100 µM.

In the case of `Cc1cncc(-c2nc(NCCc3c[nH]c4ccccc34)c3ncn(C(C)C)c3n2)c1`, the GI50 in the assay with A498 renal was 3.4 µM; with COLO 205 colon, 2.9 µM; in the assay on HS 578T breast it was 2.64 µM; in the assay with NCI-H23 lung it was 5.34 µM; in the assay on SF-539 CNS it was 3.64 µM; with SK-OV-3 ovarian, 5.76 µM. In addition, the GI50 in the assay on UACC-62 melanoma is 3.3 µM. Moreover, the TGI worked out at 16.9 µM in the assay on A498 renal; 7.26 µM in the assay with COLO 205 colon; 9.96 µM in the assay on HS 578T breast; 19.4 µM with NCI-H23 lung; 12.4 µM with SF-539 CNS; 35.7 µM with SK-OV-3 ovarian. The compound further came in with a TGI in the assay on UACC-62 melanoma of 12.1 µM.

`NC(CP(=O)(O)O)C(=O)O` (stereo unspecified): the TGI in the assay with A498 renal, in the assay on COLO 205 colon, with HL-60(TB) leukemia, in the assay on HS 578T breast, in the assay on NCI-H23 lung and in the assay on SK-OV-3 ovarian was above 100 µM in each case. The compound further had a TGI in the assay with UACC-62 melanoma above 100 µM.

Regarding `CCOC(=O)C1=C(C)NC(C)=C(C(=O)OCCNC(=O)c2ccc(N=[N+]=[N-])cc2)C1c1ccccc1C(F)(F)F` (stereo unspecified), the TGI in the assay on COLO 205 colon was 11 µM; in the assay on HL-60(TB) leukemia, 14.7 µM; in the assay with HS 578T breast, 21.5 µM; in the assay with NCI-H23 lung, 21.5 µM; in the assay on SF-539 CNS, above 31.6 µM; in the assay on SK-OV-3 ovarian, 21.5 µM. The same compound gave a TGI in the assay on UACC-62 melanoma of 21.5 µM.

For `CN(C)c1ccc(/C=C(\C#N)c2ccccc2)cc1`, the GI50 was 0.633 µM and 0.281 µM and 0.316 µM with A498 renal; 0.384 µM and 0.42 µM and 0.353 µM in the assay on COLO 205 colon; 0.218 µM and 0.34 µM in the assay on HL-60(TB) leukemia; 0.957 µM and 1.33 µM and 0.76 µM in the assay on NCI-H23 lung; 0.324 µM and 0.481 µM in the assay with SF-539 CNS; 0.421 µM and 0.622 µM and 0.641 µM in the assay with SK-OV-3 ovarian. In the assay on UACC-62 melanoma, the GI50 was 0.312 µM and 0.36 µM and 0.52 µM. For the same compound, the TGI is 2.32 µM and 5.35 µM and 2.76 µM in the assay with COLO 205 colon; 11.8 µM in the assay with HL-60(TB) leukemia; above 100 µM in the assay on NCI-H23 lung; 1.34 µM and 4.48 µM in the assay with SF-539 CNS; above 100 µM in the assay on SK-OV-3 ovarian; above 100 µM in the assay on UACC-62 melanoma.

`C[C@@H]1CC[C@H]2[C@@H](C)C(OC/C=C/COC3O[C@@H]4O[C@@]5(C)CC[C@H]6[C@H](C)CC[C@@H]([C@H]3C)[C@@]46OO5)O[C@@H]3O[C@@]4(C)CC[C@@H]1[C@]32OO4` (stereo partly specified): the GI50 in the assay with A498 renal is 15.7 µM; with COLO 205 colon, below 0.01 µM; with HL-60(TB) leukemia it was below 0.01 µM; with HS 578T breast it was 0.0311 µM; in the assay on NCI-H23 lung it was below 0.01 µM; with SK-OV-3 ovarian it was 19.5 µM. Further, the GI50 with UACC-62 melanoma was 0.0363 µM. Further, the TGI with A498 renal was above 100 µM; in the assay with COLO 205 colon it was 0.228 µM; in the assay on HS 578T breast it was above 74.9 µM; with NCI-H23 lung it was 18.5 µM; in the assay with SK-OV-3 ovarian, above 100 µM; in the assay on UACC-62 melanoma, above 100 µM.

As for `COc1ccc(NC(=S)C#N)cc1`, the TGI with A498 renal, with COLO 205 colon, with HL-60(TB) leukemia, with NCI-H23 lung, with SF-539 CNS and with SK-OV-3 ovarian was above 100 µM in each case. Besides, the TGI in the assay with UACC-62 melanoma was above 100 µM.

As for `O=c1c2cccc(F)c2sc2c(NCCCNCCO)nc3ccccc3c12`, the GI50 in the assay with A498 renal is 1.5 µM; in the assay with COLO 205 colon, 1.61 µM; with HL-60(TB) leukemia, 1.92 µM; in the assay with HS 578T breast, 1.55 µM; in the assay on NCI-H23 lung it was 1.54 µM; in the assay on SF-539 CNS, 1.65 µM. The GI50 in the assay on UACC-62 melanoma is 1.77 µM. Further, the TGI in the assay on A498 renal was determined as 2.88 µM; in the assay on COLO 205 colon it was 3.96 µM; in the assay on HL-60(TB) leukemia, 3.91 µM; in the assay with HS 578T breast, 3.53 µM; in the assay with NCI-H23 lung, 2.99 µM; with SF-539 CNS, 3.05 µM. The TGI with UACC-62 melanoma came out at 3.26 µM.

Consider `O=C1CC(C(=O)O)Cc2c(Br)ccc(O)c21` (stereo unspecified), for which the TGI with COLO 205 colon, in the assay with HL-60(TB) leukemia, with HS 578T breast, in the assay on NCI-H23 lung, in the assay on SK-OV-3 ovarian and in the assay with UACC-62 melanoma was above 100 µM each time.

With `COC(=O)[C@H](Cc1ccccc1)NNC(=O)c1csc([C@@H](C[C@H](C(C)C)N(C)C(=O)[C@@H](NC(=O)[C@H]2CCCCN2C)C2CC2)OC(C)=O)n1`, the GI50 in the assay with HL-60(TB) leukemia was 0.0013 µM; with SF-539 CNS, 0.00648 µM and 0.0315 µM; in the assay with SK-OV-3 ovarian, 0.48 µM and 1 µM; in the assay on UACC-62 melanoma it was 0.0176 µM and 0.0025 µM. Moreover, the TGI with HL-60(TB) leukemia was 0.00596 µM; in the assay with HS 578T breast, above 100 µM; in the assay on NCI-H23 lung, 25 µM and > 100 µM; in the assay with SF-539 CNS, 0.0564 µM and 0.461 µM; in the assay with SK-OV-3 ovarian, above 100 µM; in the assay on UACC-62 melanoma it was 25 µM.

Source of the values: PubChem BioAssay (NCI).
